Results published in ChEMBL document CHEMBL3856276, “Design, Synthesis, and Biological Evaluation of Novel Tetrahydroprotoberberine Derivatives (THPBs) as Selective α1A-Adrenoceptor Antagonists” (J Med Chem, 2016).

Assays:
[1] = molecular target: T1, Alpha-1A adrenergic receptor (Homo sapiens) (UniProt P35348); experiment: Antagonist activity at human full-length N-terminal SNAP-tagged alpha1A adrenoceptor expressed in HEK293 cells assessed as inhibition of agonist-induced calcium mobilization at 10 uM preincubated for 10 mins followed by agonist addition by fluo-4 AM dye-based assay relative to control; assay type: functional, cell-based
T1 sequence (whole entry): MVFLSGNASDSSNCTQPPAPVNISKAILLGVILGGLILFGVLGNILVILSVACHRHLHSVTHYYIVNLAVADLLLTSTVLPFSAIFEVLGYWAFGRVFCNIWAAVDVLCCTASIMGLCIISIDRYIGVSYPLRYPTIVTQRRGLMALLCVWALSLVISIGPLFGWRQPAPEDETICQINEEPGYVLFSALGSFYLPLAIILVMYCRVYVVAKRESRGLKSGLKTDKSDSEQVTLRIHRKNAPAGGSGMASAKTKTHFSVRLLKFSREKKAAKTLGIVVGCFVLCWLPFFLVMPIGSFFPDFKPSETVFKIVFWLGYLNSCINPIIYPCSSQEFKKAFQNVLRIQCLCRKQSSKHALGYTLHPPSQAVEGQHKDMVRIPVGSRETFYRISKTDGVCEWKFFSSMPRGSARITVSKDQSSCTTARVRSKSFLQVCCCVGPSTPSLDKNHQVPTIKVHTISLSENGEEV

Homo sapiens = species: Homo sapiens; experiment: Selectivity ratio of IC50 for human full-length N-terminal SNAP-tagged alpha1B adrenoceptor to IC50 for human full-length N-terminal SNAP-tagged alpha1A adrenoceptor
[2] = molecular target: T2, Alpha-1A adrenergic receptor (Rattus norvegicus, UniProt P43140); experiment: Antagonist activity at alpha1A adrenoceptor in Sprague-Dawley rat urethra assessed as inhibition of norepinephrine-induced smooth muscle contraction after 20 mins
T2 sequence (P43140 whole entry): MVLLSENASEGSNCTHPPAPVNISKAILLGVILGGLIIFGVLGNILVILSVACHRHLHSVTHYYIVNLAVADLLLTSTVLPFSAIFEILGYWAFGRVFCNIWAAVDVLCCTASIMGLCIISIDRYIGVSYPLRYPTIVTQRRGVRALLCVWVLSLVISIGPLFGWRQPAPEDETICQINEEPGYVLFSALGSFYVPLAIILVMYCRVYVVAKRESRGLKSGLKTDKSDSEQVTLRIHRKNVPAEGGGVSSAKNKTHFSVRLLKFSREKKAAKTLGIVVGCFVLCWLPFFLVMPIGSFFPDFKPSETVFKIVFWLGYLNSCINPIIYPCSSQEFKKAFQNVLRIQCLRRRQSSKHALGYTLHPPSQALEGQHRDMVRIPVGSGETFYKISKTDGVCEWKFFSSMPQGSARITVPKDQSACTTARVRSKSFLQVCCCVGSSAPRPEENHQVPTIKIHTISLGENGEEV

Mus musculus [3] = experiment: Acute toxicity in Kunming mouse assessed as mortality at 500 mg/kg, po administered as single dose measured over 7 days; assay type: organism-based; conditions: in vivo, 168 h
Mus musculus [4] = experiment: Acute toxicity in Kunming mouse assessed as effect on body weight at 500 mg/kg, po administered as single dose measured over 7 days; assay type: organism-based; conditions: in vivo, 168 h
[5] = AUC (0 to t) in rat at 20 mg/kg, ig via oral gavage; assay type: ADME, organism-based; conditions: in vivo
[6] = Half life in rat at 10 mg/kg, iv; assay type: ADME, organism-based; conditions: in vivo
[7] = molecular target: T3, Alpha-1A adrenergic receptor (Homo sapiens, UniProt P35348)
T3 sequence (P35348 whole entry): T1 sequence (whole entry)
Description: Antagonist activity at human full-length N-terminal SNAP-tagged alpha1A adrenoceptor expressed in HEK293 cells assessed as inhibition of agonist-induced calcium mobilization preincubated for 10 mins followed by agonist addition by fluo-4 AM dye-based assay

Which inhibition [1] does the source give for COc1ccc2[nH]c3c(c2c1)C[C@H]1c2cc4c(cc2CCN1C3)OCO4 here?
The inhibition was 100%.

What about the Ratio IC50 (Homo sapiens) of the same compound?
The Ratio IC50 was > 781.

What about the IC50 [2] of the same compound?
Its IC50 is 0.5 nM.

What about the Activity (Mus musculus [3]) of the same compound?
The Activity was “Non-Toxic”.

And the Activity (Mus musculus [4])?
The Activity was “Non-Toxic”.

And the AUC(0-t) [5]?
The AUC(0-t) was 2270 ng·h/mL.

And the half-life [6]?
The half-life was 58.8 min.

What about the IC50 [7] of the same compound?
Its IC50 is 12.8 nM.
